Data taken from patent US11541081B2, “Methods and compositions for changing the composition of the skin microbiome using complex mixtures of bacterial strains” (priority 2016, dated 2023).

Columns and labels:
P. acnes strains = test: Inhibition of P. acnes strains by salicylic acid; assay type: cell-based
[1] = MBC test, 24 h exposure to benzoic acid, then 4 days on RCM agar; details: all P. acnes strains tested
acne patients = test: Pilot clinical study: safety evaluation; assay type: in vivo, human; details: BPO once a day, Day 1-Day 7, 14 subjects
Procedure: (§1) The pilot study was performed for 6 weeks with 14 subjects between 18-23 years. The primary endpoints were safety and efficacy trends. Two different bacterial formulations: A2 (a 2-strain mixture comprising strains C3 and K8 of P. acnes) and B4 (a 4-strain mixture comprising strains C3, K8, A5, and F4 of P. acnes) were tested.
(§2) Subjects were randomly distributed into two arms with different bacterial formulations administered to the subjects in each arm. Bacterial formulations were double-blinded: Arm 1: n=8 subjects received formulation A2. Arm 2: n=6 subjects received formulation B4. Subjects were evaluated on Day 1, Day 7, Day 21, and Day 42. In the first week, between Day 1 and Day 7, all subjects received Benzoyl peroxide (BPO) treatment (applied once a day). In the following 5 weeks, between Day 7 and Day 42, all subjects received bacterial formulation (gel applied 2× per day). FIG. 8A depicts the design of the pilot study.
The safety of the administered formulations was evaluated, for example, by visual evaluation of the redness, irritation or any other skin problems during each visit. No safety issues were observed during the study. Seven subjects reported dry or red skin during the use of BPO (Day 1-Day 7). […] No adverse effects were observed associated with the administration of live bacteria.

skin microbiome = test: Pilot clinical study: bacterial species composition of skin microbiome (16S); assay type: in vivo, human; details: after BPO application (Day 7)
Procedure: as §1, §2
The composition of bacterial species (16S) in the microbiome samples were analyzed on each visit. […]
When relating the bacterial species (16S) data with the strain level data (SLST) of P. acnes, it was observed that on Day 1 (ground state) the relative abundance of P. acnes was lower in acceptors (34%) compared to non-acceptors (41%). […] Relative abundances were determined using classical 16S amplicon sequencing. […]

P. acnes = details: Allgaier et al., 1985; cited from earlier work

O=C(O)c1ccccc1O [salicylic acid]
inhibition of P. acnes strains (P. acnes strains): not inhibited

O=C(O)c1ccccc1 [Benzoic acid]
concentration of benzoic acid affecting the growth of all strains (MBC test) [1]: greater than 0.31 % vol/vol

O=C(OOC(=O)c1ccccc1)c1ccccc1 [BPO, Benzoyl peroxide]
subjects reporting dry or red skin (acne patients): Seven
change of total P. acnes population (skin microbiome): decrease

Epidermin
activity against P. acnes (P. acnes): highly active
